Assay results reported in ChEMBL document CHEMBL1201862, “PubChem BioAssay data set” (2004).
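Step 1: Grow cells in 96-well plates. Step 2: Expose to compound for 48 hours at 5 concentrations. Step 3: Interpolate endpoints linearly; if unreached, use highest concentration. The concentration for 50% growth inhibition is given as GI50.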 Active and inactive are the calls of the source. No stated cut-off is given here; in the data, active = GI50 up to about 1.1 µM and inactive = higher.

How the values were obtained:
Assay in all cases: NCI-60 cell line screen, 48 h
786-0 = test system: 786-0
A498 = test system: A498
A549 = test system: A549
ACHN = test system: ACHN
BT-549 = test system: BT-549
CAKI-1 = test system: CAKI-1
CCRF-CEM = test system: CCRF-CEM
COLO 205 = test system: COLO 205
DLD-1 = test system: DLD-1
DMS-114 = test system: DMS-114
DMS-273 = test system: DMS-273
EKVX = test system: EKVX
HCC 2998 = test system: HCC 2998
HCT-116 = test system: HCT-116
HCT-15 = test system: HCT-15
HL-60 = test system: HL-60
HOP-18 = test system: HOP-18
HOP-62 = test system: HOP-62
HOP-92 = test system: HOP-92
HT-29 = test system: HT-29
Hs-578T = test system: Hs-578T
IGROV-1 = test system: IGROV-1
K562 = test system: K562
KM-20L2 = test system: KM-20L2
KM12 = test system: KM12
LOX IMVI = test system: LOX IMVI
LXFL 529 = test system: LXFL 529
M14 = test system: M14
M19-MEL = test system: M19-MEL
MCF7 = test system: MCF7
MDA-MB-231 = test system: MDA-MB-231
MDA-MB-435 = test system: MDA-MB-435
MDA-N = test system: MDA-N
MOLT-4 = test system: MOLT-4
Malme-3M = test system: Malme-3M
NCI-H226 = test system: NCI-H226
NCI-H23 = test system: NCI-H23
NCI-H460 = test system: NCI-H460
NCI-H522 = test system: NCI-H522
NCI/ADR-RES = test system: NCI/ADR-RES
OVCAR-3 = test system: OVCAR-3
OVCAR-4 = test system: OVCAR-4
OVCAR-5 = test system: OVCAR-5
OVCAR-8 = test system: OVCAR-8
PC-3 = test system: PC-3
RPMI-8226 = test system: RPMI-8226
RXF 393 = test system: RXF 393
RXF 631 = test system: RXF 631
SF-268 = test system: SF-268
SF-295 = test system: SF-295
SF-539 = test system: SF-539
SK-MEL-28 = test system: SK-MEL-28
SK-MEL-2 = test system: SK-MEL-2
SK-MEL-5 = test system: SK-MEL-5
SK-OV-3 = test system: SK-OV-3
SN12C = test system: SN12C
SNB-19 = test system: SNB-19
SNB-75 = test system: SNB-75
SNB-78 = test system: SNB-78
SR = test system: SR
SW-620 = test system: SW-620
T47D = test system: T47D
TK-10 = test system: TK-10
U-251 = test system: U-251
UACC-257 = test system: UACC-257
UACC-62 = test system: UACC-62
UO-31 = test system: UO-31
XF498 = test system: XF498

With `CCCCCCCCCCCCCCCC(=O)OCC(C[As](=O)(O)O)OC(=O)CCCCCCCCCCCCCCC` (stereo not drawn) the GI50 (786-0) was > 84.5 µM (inactive), the GI50 (A498) was > 100 µM (inactive) and the GI50 (A549) was > 100 µM (inactive). The GI50 (ACHN) was > 71.6 µM (inactive), the GI50 (BT-549) was > 100 µM (inactive) and the GI50 (CAKI-1) was 97.3 µM (inactive). For the same molecule, the GI50 (CCRF-CEM) was > 100 µM (inactive), the GI50 (COLO 205) was > 100 µM (inactive) and the GI50 (DLD-1) was > 100 µM (inactive). For the same molecule, the GI50 (DMS-114) was 70.6 µM (inactive), the GI50 (DMS-273) was > 100 µM (inactive) and the GI50 (EKVX) was > 100 µM (inactive). For the same molecule, the GI50 (HCC 2998) was > 100 µM (inactive), the GI50 (HCT-116) was > 100 µM (inactive) and the GI50 (HCT-15) was over 66.5 µM. For the same molecule, the GI50 (HL-60) was > 100 µM (inactive), the GI50 (HOP-18) was > 100 µM (inactive) and the GI50 (HOP-62) was > 70.3 µM (inactive). For the same molecule, the GI50 (HOP-92) was > 72.6 µM (inactive), the GI50 (HT-29) was > 100 µM (inactive) and the GI50 (Hs-578T) was 58.5 µM (inactive). For the same molecule, the GI50 (IGROV-1) was > 100 µM (inactive), the GI50 (K562) was > 100 µM (inactive) and the GI50 (KM-20L2) was > 100 µM (inactive). The GI50 (KM12) was > 100 µM (inactive), the GI50 (LOX IMVI) was > 100 µM (inactive) and the GI50 (LXFL 529) was > 100 µM (inactive). The GI50 (M14) was > 100 µM (inactive), the GI50 (M19-MEL) was > 100 µM (inactive) and the GI50 (MCF7) was > 100 µM (inactive). The GI50 (MDA-MB-231) was > 100 µM (inactive), the GI50 (MDA-MB-435) was > 100 µM (inactive) and the GI50 (MDA-N) was > 100 µM (inactive). For the same molecule, the GI50 (MOLT-4) was > 100 µM (inactive), the GI50 (Malme-3M) was > 74.8 µM (inactive) and the GI50 (NCI-H226) was > 74.8 µM (inactive). The GI50 (NCI-H23) was > 100 µM (inactive), the GI50 (NCI-H460) was > 100 µM (inactive) and the GI50 (NCI-H522) was > 100 µM (inactive). The GI50 (NCI/ADR-RES) was > 100 µM (inactive), the GI50 (OVCAR-3) was > 100 µM (inactive) and the GI50 (OVCAR-4) was > 100 µM (inactive). The GI50 (OVCAR-5) was > 100 µM (inactive), the GI50 (OVCAR-8) was > 100 µM (inactive) and the GI50 (PC-3) was > 100 µM (inactive). The GI50 (RPMI-8226) was > 100 µM (inactive), the GI50 (RXF 393) was > 68.1 µM (inactive) and the GI50 (RXF 631) was 54.7 µM (inactive). The GI50 (SF-268) was 68.9 µM (inactive), the GI50 (SF-295) was > 82.6 µM (inactive) and the GI50 (SF-539) was > 100 µM (inactive). For the same molecule, the GI50 (SK-MEL-28) was > 100 µM (inactive), the GI50 (SK-MEL-2) was > 100 µM (inactive) and the GI50 (SK-MEL-5) was > 100 µM (inactive). For the same molecule, the GI50 (SK-OV-3) was > 58.2 µM (inactive), the GI50 (SN12C) was > 74.5 µM (inactive) and the GI50 (SNB-19) was > 56.8 µM (inactive). The GI50 (SNB-75) was 33 µM (inactive), the GI50 (SNB-78) was 22.4 µM (inactive) and the GI50 (SR) was > 100 µM (inactive). For the same molecule, the GI50 (SW-620) was > 50.9 µM (inactive), the GI50 (T47D) was > 100 µM (inactive) and the GI50 (TK-10) was > 66.5 µM (inactive). For the same molecule, the GI50 (U-251) was > 65.6 µM (inactive), the GI50 (UACC-257) was > 100 µM (inactive) and the GI50 (UACC-62) was > 100 µM (inactive). The GI50 (UO-31) was > 100 µM (inactive) and the GI50 (XF498) was 27 µM (inactive).
